Source: US20140206028A1, “Stable Electrically Active Neurons from Adult Tissue” (University of Central Florida Research Foundation, Inc., priority 2011, published 2014)

Columns and labels:
Assay type in all cases: cell-based
[1] = test system: adult rat hippocampal neurons on MEAs; assay: MEA recording of spontaneous activity, adult hippocampal neurons; conditions: adult cultures
Method: Adult neurons were extracted, dissociated, cultured, and maintained. Briefly, the hippocampi of adult rats (Charles River, age 6-12 months) were dissected and homogenized into small tissue fragments in cold medium (˜4° C.) consisting of Hibernate-A, glutamax, and antibiotic-antimycotic. The tissue was digested for 30 minutes at 37° C. in calcium-free Hibernate-A (HA) containing 6 mg papain/12 ml (HA no calcium). Following digestion, the tissue was washed three times with cold HA media to remove any active enzyme. Next, the tissue was suspended in Dissociation Medium and broken apart into individual cells through mechanical dissociation with fire-polished Pasteur pipettes. The dissociated cells were suspended in Plating medium and then deposited onto DETA (N-1 [3-(trimethoxysilyl) propyl]-diethylenetriamine, United Chemical Technologies Inc., Bristol, Pa., T2910KG) coated glass cover slips. After 30-45 minutes, the cover slips were washed with warm HA by gently swirling the medium to remove tissue debris. Following this washing step, fresh Plating medium was applied and remained for the first 3 div. On 3 div the medium was removed and replaced by Maintenance Medium with 5 μM Roscovitine (Rosc, Sigma, R7772). All research was approved by the Institutional Animal Care and Use Committee at the University of Central Florida and conformed to NIH guidelines. After 4 div, the adult hippocampal neurons on the DETA cover slips were passaged to MEAs. Briefly, neurons were dislodged from the DETA with trypsin (0.05% trypsin/EDTA in HBSS, Gibco, 25200). Trypsin inhibitor (trypsin inhibitor, soybean, Gibco, 17075-029) in Dissociation medium at 0.5 mg per ml deactivated the trypsin. The dislodged neurons were collected and spun at 500×g for 5 minutes. The supernatant of deactivated trypsin in HBSS was discarded, and the neuronal cell pellet was suspended in 1 ml Plating medium. Immunocytochemistry and Laser Scanning Confocal Microscopy
(§1) The MEA chips (Axion Biosystems) provided 64 platinum-black coated gold-electrodes with a diameter of 30 μm, organized in an 8 by 8 array with 200 μm pitch. Clean MEAs were sterilized with 70% alcohol and then incubated with 1 ml poly-L-lysine (100 μg/ml) for 30 minutes. An area just large enough to cover all electrodes was additionally coated with 3 μl laminin (2 μg/ml) over night. Embryonic rat hippocampal neurons were plated directly on MEAs at a density of 500 cells/mm2. Adult rat hippocampal neurons were first cultured on DETA coated cover slips for recovery. […] After 4 days on DETA cover slips, the adult neurons were passaged onto MEAs at a density of 500 cells/mm2. Every 2-3 days, half the medium was replaced with fresh Maintenance medium supplemented with 2 μM Rosc.
(§2) MEAs were incubated with their covers off to allow gas exchange but covered upon removal from the incubator to reduce contamination, media evaporation, and gas exchange while recordings were taken. The head stage of the recording system (Axion Biosystems) was pre-heated to 37° C. before MEAs with adult or embryonic hippocampal cultures were investigated. The activity of neuronal networks was recorded with 25 kHz using the software Axion's Integrated Studio (AxIS). Signal amplitudes 6 times larger than the standard deviation of the base line were detected as action-potential spikes. The spike data was then imported into Matlab 2010b (The MathWorks) for further processing.
Baseline spontaneous activity in adult and embryonic neurons was recorded for 3 minutes on 5 consecutive days per week, starting on 7 div. The synaptic antagonists D-(−)-2-Amino-5-phosphonopentanoic acid (D-APS, 25 μM, Tocris Bioscience, 0106), 6-Cyano-7-nitroquinoxaline-2,3-dione disodium (CNQX, 25 μM, Tocris Bioscience, 1045), and (−)-Bicuculline methobromide (Bicuculline, 50 μM, Tocris Bioscience, 0109) were separately administered to both adult and embryonic neurons on 14 div and at various time points between 30 and 60 div. […]

[2] = test system: embryonic rat hippocampal neurons on MEAs; assay: MEA recording of spontaneous activity, embryonic hippocampal neurons; conditions: embryonic cultures
Method: Embryonic hippocampal neurons were cultured. Pregnant rats, 18 days in gestation, obtained from Charles River were euthanized with carbon dioxide and the fetuses were collected in ice-cold Hibernate E (BrainBits)/B27/Glutamaxtm/Antibiotic-antimycotic (Invitrogen) (Dissecting Medium). Each fetus was decapitated, and the whole brain was transferred to fresh ice cold dissecting medium. After isolation, the hippocampi were collected in a fresh tube of dissecting medium. The tissue was enzymatically digested at 37° C. for 10 minutes with papain (Worthington 3119), 12 mg/6 ml Hibernate-E (-calcium) (BrainBits)+0.5 mM Glutamax (Invitrogen). Hippocampal neurons were obtained by triturating the tissue using a fire-polished Pasteur pipette. After centrifugation, the cells were re-suspended in culture medium (Neurobasal/B27/Glutamaxtm/antibiotic-antimycotic) and plated on MEAs. All research was approved by the Institutional Animal Care and Use Committee at the University of Central Florida and conformed to NIH guidelines.
as §1, §2
Baseline spontaneous activity in adult and embryonic neurons was recorded for 3 minutes on 5 consecutive days per week, starting on 7 div. The synaptic antagonists D-(−)-2-Amino-5-phosphonopentanoic acid (D-APS, 25 μM, Tocris Bioscience, 0106), 6-Cyano-7-nitroquinoxaline-2,3-dione disodium (CNQX, 25 μM, Tocris Bioscience, 1045), and (−)-Bicuculline methobromide (Bicuculline, 50 μM, Tocris Bioscience, 0109) were separately administered to both adult and embryonic neurons on 14 div and at various time points between 30 and 60 div. Three minute recordings were made to quantify the effect from these antagonists on spontaneous activity. If necessary, additional baselines were recorded prior to the administration of antagonists. Each experiment was followed by a complete washout of the antagonist and replacement with fresh medium.
Data analysis was performed off-line using unpublished Matlab functions to evaluate spike files created during each MEA recording. […] In about 25% of the adult cultures and 14% of the embryonic cultures, portions of the neuronal networks detached from the substrate over time and especially after about 6 weeks. In order to accommodate the different numbers of active channels between MEAs, all values were corrected for the amount of active channels on an MEA. […]

[3] = test system: adult rat hippocampal neurons; assay: Control of neuronal division in dissociated adult rat hippocampal neuron culture (cell population, neurite length, marker expression); conditions: for elimination of division of cultured neurons by mitotic inhibitors: added to culture medium on 2 DIV, FudR 10 and 50 μM; for neuronal division after addition to the culture medium: roscovitine added to the culture medium (at 3 div in MEA work)
Method: The hippocampi of adult rats (Charles River, age 6-12 months) were dissected and homogenized into small tissue fragments in cold medium (˜4° C.) consisting of Hibernate-A, Glutamax, and antibiotic-antimycotic. The tissue was then digested for 30 minutes at 37° C. in calcium-free Hibernate-A (HA) containing 6 mg papain/12 ml (HA). Following digestion, the tissue was washed three times with cold Hibernate-A media to remove any active enzyme. Next, the tissue was suspended in Dissociation Media (Table 1), formulated for dissociation of rat and mouse adult brain tissue into individual cells and dissociated into individual cells through mechanical dissociation with fire-polished Pasteur pipettes. The dissociated cells were suspended in Plating Media (Table 1), used after tissue dissociation to promote neuronal attachment and regeneration, and then deposited onto DETA-coated glass cover slips for 30-45 minutes. DETA, with its triamine functional group exposed at the surface, strongly attaches to neurons and allows for all non-neuronal debris such as ECM proteins, myelin debris, and cell fragments to be washed from the cover slip surface (D. A. Stenger et al., 1993; J. J. Hickman et al., 1994; M. Das et al., 2005; A. E. Schaffner et al., 1995). Following this washing step, fresh Plating medium was applied and remained for the first 3 DIV. On 3 DIV and every fourth subsequent day, one half of the medium was removed and replaced with Maintenance Media (FIG. 1, Table 1), supporting the long-term maintenance of these neurons. […] The osmolarity of the media was adjusted to match the osmolarity of adult rat cerebrospinal fluid (295-305 mOsm) (S. C. Baraban et al., 1997; R. A. Fishman and G. D. Silverberg, 2002). In the Dissociation Medium (Table 1), the use of caspase inhibitors and antioxidants (M. Das et al., 2007) during the dissociation of the tissue minimized both oxidative damage as well as the progression into apoptosis which normally results from cellular damage during this stage. […] For long-term survival, the anti-oxidants were removed from the Maintenance Medium (Table 1).
After neuronal confluence, 25 μM glutamate ((N-Acetyl-L-glutamic acid, Aldrich, 855642) triggers induction of neuronal electrical recovery (D. Edwards et al., 2010). Control of the division of neurons in this culture system was investigated experimentally as follows: (1) bFGF removal from both the Plating and Maintenance medium. (2) Fluorodeoxyuridine (FudR, Sigma-Aldrich, F-0503) addition at 10 and 50 μM (3) arabinoside-D (ara-C, Sigma, C-6645) plus deoxycytidine addition. (4) Trolox (Sigma, 238813) addition at 40 and 100 μM. (5) Aphidicolin (Aph, Sigma, A0781) addition at 1.5 μM. (6) Roscovitine (Rosc, Sigma, R7772) addition at 1, 5, and 10 μM. All factors were added before the onset of neuronal division (2 DIV), some after the onset of division (after 3 DIV).
To prepare cells for immunocytochemical characterization, cover slips were rinsed twice with Phosphate Buffered Saline (PBS). Cells were fixed with 4% paraformaldehyde for ten minutes at room temperature, and subsequently rinsed three times with PBS. Cells were permeabilized for five min in PBS with 5 mM Lysine and 0.5% Triton X-100, and were then blocked for two hours by adding 5% normal donkey serum. Anti-Neurofilament-M polyclonal antibody (Nf-M, intracellular filament found in mature neurons, Chemicon, AB 1981, diluted 1:1000), anti-NeuN (nuclear marker in mature neurons, Chemicon, diluted 1:1000), anti-Ki-67 (nuclear marker in dividing cells, Chemicon, diluted 1:1000), anti-NR2A (NMDA channel subunit expressed in the post-synaptic cell membrane, AB1548, diluted 1:75), anti-NR2B (NMDA channel subunit expressed in the post-synaptic cell membrane, MAB5216, diluted 1:150) were added in blocking solution for 12 hr at 4° C. After 3 washes with PBS, fluorescently labeled secondary antibodies (Invitrogen, A1011, A21449, and A11029) were applied for two hours. […]

Compound: N#Cc1cc2c(cc1[N+](=O)[O-])=NC(=O)C(=O)N=2.[Na].[Na] [CNQX, 6-Cyano-7-nitroquinoxaline-2,3-dione disodium]
- change in action potential frequency ([1]; 25 μM CNQX, 14 div): not affected
- loss of channel activity (active channels) versus baseline ([1]; 25 μM antagonist, 14 div): 52±3%
- loss of channel activity (active channels) versus baseline ([1]; 25 μM antagonist, 30-60 div): 24±5%
- lowering (drop) of action potential frequency versus baseline ([1]; 25 μM antagonist, 30-60 div): 31±6%
- change in action potential frequency ([2]; 25 μM CNQX, 14 div): not affected
- loss of channel activity (active channels) versus baseline ([2]; 25 μM antagonist, 14 div): 23±5%
- decrease (drop) of firing rate versus baseline ([2]; 25 μM antagonist, 30-60 div): 47±5%
- loss of channel activity (active channels) versus baseline ([2]; 25 μM antagonist, 30-60 div): 0±7%

Compound: N[C@H](CCCP(=O)(O)O)C(=O)O [D-AP5, D-(−)-2-Amino-5-phosphonopentanoic acid]
- loss of channel activity (active channels) versus baseline ([1]; 25 μM antagonist, 14 div): 90±6%
- lowering of action potential frequency versus baseline ([1]; 25 μM antagonist, 14 div): 76±8%
- loss of channel activity (active channels) versus baseline ([1]; 25 μM antagonist, 30-60 div): 82±6%
- lowering (drop) of action potential frequency versus baseline ([1]; 25 μM antagonist, 30-60 div): 82±17%
- increase of firing rate versus baseline ([2]; 25 μM antagonist, 14 div): 90±6%
- loss of channel activity (active channels) versus baseline ([2]; 25 μM antagonist, 14 div): 65±4%
- decrease (drop) of firing rate versus baseline ([2]; 25 μM antagonist, 30-60 div): 70±7%
- loss of channel activity (active channels) versus baseline ([2]; 25 μM antagonist, 30-60 div): 36±7%

Compound: O=c1[nH]c(=O)n([C@H]2C[C@H](O)[C@@H](CO)O2)cc1F [FudR, Fluorodeoxyuridine]
- elimination of division of cultured neurons by mitotic inhibitors [3]: all dividing cells were forced into apoptosis

Compound: Cc1c(C)c2c(c(C)c1O)CCC(C)(C(=O)O)O2 (centres unmarked) [Trolox]
- prevention of return of primary neurons to the cell cycle ([3]; Trolox 40 and 100 μM, 2 DIV): not effective
- neuronal survival (antioxidant activity) ([3]; Trolox in culture medium): improve neuronal survival

Compound: C[C@@]1(CO)[C@H](O)CC[C@@]2(C)[C@H]1CC[C@H]1C[C@@H]3C[C@@]12CC[C@]3(O)CO [aphidicolin, Aphidicolin]
- regeneration of surviving neurons ([3]; aphidicolin 1.5 μM, 2 DIV): limited regeneration of neurites and functional electrical properties
- survival of cultured neurons ([3]; aphidicolin 1.5 μM, 2 DIV): caused most cultured neurons to either necrose or apoptose

Compound: Nc1ccn([C@@H]2O[C@H](CO)[C@@H](O)[C@@H]2O)c(=O)n1 [ara-C, arabinoside-D]
- elimination of division of cultured neurons by mitotic inhibitors [3]: all dividing cells were forced into apoptosis

Compound: CC[C@H](CO)Nc1nc(NCc2ccccc2)c2ncn(C(C)C)c2n1 [roscovitine]
- neuronal cell population ([3]; 1 μM roscovitine applied on day 2, bFGF in medium): the cell population increased more slowly than without roscovitine
- extension of primary axons versus untreated control neurons ([3]; 5 μM roscovitine days 2-7, 2 μM after day 7, on average): 4-5 times longer
- neuronal cell population ([3]; 5 μM roscovitine on days 2-7 in vitro and 2 μM after day 7): A stable population of neurons was achieved
- neuronal cell population ([3]; 5 μM roscovitine on days 2-7 in vitro and 2 μM after day 7, listed as Rosc): stable in vitro
- neuronal cell population ([3]; 10 μM roscovitine applied on day 2): caused a decrease in the neuronal population
- neuronal cell population ([3]; 10 μM roscovitine introduced on day 7): a sharp loss of neurons
- neuronal division after addition to the culture medium [3]: neurons no longer divided
- neuronal division after addition to the culture medium ([3]; listed as Roscovitine): prevented neuronal mitotic activity
- expression of neuronal and proliferation markers (MAP2, NeuN, Ki-67) ([3]; roscovitine treated, non-proliferating neurons, immunocytochemistry): expressed the mature neuronal markers MAP2 and NeuN, but lacked expression for the nuclear marker of proliferating cells, Ki-67

Compound: bFGF: basic fibroblast growth factor (Invitrogen, 13256-029)
- neuronal cell proliferation ([3]; bFGF 5 ng/ml in medium): triggered neuronal cell proliferation until confluence
